Test results: patent US20110230478A1 (Bayer ScienceCrop AG, priority 2008, published 2011)
Read-outs that look alike come from different tables or passages of the source.

Experiment: logP by HPLC on reversed-phase columns (C 18), EEC Directive 79/831 Annex V.A8
Type: physicochemical
Settings: for chromatographic logP: reversed-phase HPLC column (C 18)
[1] = values marked [b], footnote not given
[2] = values marked [c], footnote not given
[3] = method marker [b] (compound 257: pH2.7)

Row | Structure (SMILES) | logP [1] | other results
1 | COCC(C)Nc1nc(Nc2ccc(N(C(=O)C(F)(F)F)C3CC3)cc2)ncc1Cl (centres unmarked) [Example 164] | 2.55[b] | 
2 | COCC(C)Nc1nc(Nc2cccc(NC(=O)Oc3ccccc3)c2)ncc1Cl (centres unmarked) [Example 165] | 2.23[b] | 
3 | COCC(C)Nc1nc(Nc2cccc(NC(=O)C(C)(C)CF)c2)ncc1Cl (centres unmarked) [Example 166] | 1.83[b] | 
4 | COCC(C)Nc1nc(Nc2ccc(C)c(NC(C)=O)c2)ncc1Cl (centres unmarked) [Example 167] | 1.37[b] | 
5 | COCC(C)Nc1nc(Nc2cccc(NC(=O)c3ccco3)c2)ncc1Cl (centres unmarked) [Example 168] | 1.68[b] | 
6 | COCC(C)Nc1nc(Nc2ccc(O)c(C)c2)ncc1Cl (centres unmarked) [Example 171] | 1.39[b] | 
7 | CSCC(C)(C)Nc1nc(Nc2ccccc2)ncc1Cl [Example 174] |  | logP (values marked [a], pH 2.3): 2.68[a];; logP [2]: 4.18[c]
8 | CSCC(C)(C)Nc1nc(Nc2cccc(SC)c2)ncc1Cl [Example 175] |  | logP (values marked [a], pH 2.3): 3.48[a];; logP [2]: 4.59[c]
9 | FC(F)(F)OCCNc1nc(Nc2ccccc2)ncc1Cl [Example 177] | 2.26[b] | 
10 | CN(C)c1nc(Nc2ccccc2)ncc1Br [Example 178] | 1.86[b] | 
11 | CCC(C)N(C)c1nc(Nc2cccc(C(C)=O)c2)ncc1Cl (centres unmarked) [Example 179] |  | logP (values marked [a], pH 2.3): 2.88[a]
12 | CSc1cccc(Nc2ncc(Cl)c(N(C)C(C)C)n2)c1 [Example 219] |  | logP (values marked [a], pH 2.3): 3.45[a];; logP [2]: 4.64[c]
13 | N#CCNc1nc(Nc2ccccc2)ncc1Cl [Example 220] |  | logP (values marked [a], pH 2.3): 1.62[a];; logP [2]: 2.2[c]
14 | CSc1cccc(Nc2ncc(Cl)c(NCC#N)n2)c1 [Example 221] |  | logP (values marked [a], pH 2.3): 2.27[a]
15 | COCCN(C)c1nc(Nc2ccccc2)ncc1Cl [Example 222, 5-Chloro-N^4-(2-methoxyethyl)-N^4-methyl-N^2-phenylpyrimidine-2,4-diamine] |  | chromatographic logP (pH 2.3, pH 2.3, 0.1% aqueous phosphoric acid and acetonitrile, read-out: logP [a]): 2.02; chromatographic logP (pH 2.3, values marked [a], pH 2.3, read-out: logP): 2.02
16 | CC(CO)Nc1nc(Nc2ccccc2)ncc1Cl (centres unmarked) [Example 223] |  | logP (values marked [a], pH 2.3): 1.04[a]
17 | COCC(Nc1nc(Nc2ccccc2)ncc1Br)C(C)C (centres unmarked) [Example 224] | 2.55[b] | 
18 | Cc1cccc(Nc2ncc(Cl)c(NC(C)C)n2)c1 [Example 229] | 2[b] | logP [2]: 3.84[c];
19 | COCC(C(C)C)N(C)c1nc(Nc2ccccc2)ncc1Br (centres unmarked) [Example 231] |  | logP (values marked [a], pH 2.3): 2.47[a]
20 | CCC(COC)N(C)c1nc(Nc2ccccc2)ncc1Br (centres unmarked) [Example 232] |  | logP (values marked [a], pH 2.3): 2.23[a]
21 | CC(C)CC(C)N(C)c1nc(Nc2ccccc2)ncc1Br (centres unmarked) [Example 233] |  | logP (values marked [d], footnote not given): 3.39[d]
22 | CNc1nc(Nc2cccc(CC#N)c2)ncc1Cl [Example 235] | 1.1[b] | 

Row | Structure (SMILES) | logP [1] | other results
23 | CC(C)Nc1nc(Nc2cccc(CC#N)c2)ncc1Cl [Example 236] |  | logP [2]: 1.69[c]
24 | CCOCCN(C)c1nc(Nc2ccccc2)ncc1Br [Example 237] | 2.55[b] | logP [2]: 3.95[c];
25 | CCNc1nc(Nc2cccc(SC)c2)ncc1Cl [Example 238] | 1.92[b] | logP [2]: 3.46[c];
26 | CCN(C)c1nc(Nc2cccc(SC)c2)ncc1Cl [Example 239] | 2.99[b] | logP [2]: 4.32[c];
27 | CCNc1nc(Nc2ccccc2)ncc1Cl [Example 240] | 1.38[b] | logP [2]: 3.03[c];
28 | CCN(C)c1nc(Nc2ccccc2)ncc1Cl [Example 241] | 2.11[b] | logP [2]: 3.85[c];
29 | COCC(C)Nc1nc(Nc2cccc(C=O)c2)ncc1Cl (centres unmarked) [Example 244] | 1.8[b] | logP [2]: 2.75[c];
30 | CC(C)Nc1nc(Nc2ccc(C(=O)N(C)C)cc2)ncc1Br [Example 245] |  | logP [3]: 1.54[b]
31 | CC(C)Nc1nc(Nc2cccc(CC#N)c2)ncc1Br [Example 246] |  | logP [3]: 1.84[b]; logP (method marker [c]): 3.13[c];
32 | CC(C)Nc1nc(Nc2ccccc2)ncc1Br [Example 247] |  | logP [3]: 1.89[b]; logP (method marker [c]): 3.7[c];
33 | CC(C)Nc1nc(Nc2cccc(CS(=O)(=O)NC(C)c3ccccc3)c2)ncc1Cl (centres unmarked) [Example 248] |  | logP [3]: 2.32[b]; logP (method marker [c]): 3.57[c];
34 | CC(=O)c1cccc(Nc2ncc(Cl)c(NC3CCCCC3)n2)c1.Cl [Example 249] |  | logP [3]: 2.53[b]
35 | CC(C)Nc1nc(Nc2cccc(CS(=O)(=O)N(C)C)c2)ncc1Cl [Example 250] |  | logP [3]: 1.69[b]; logP (method marker [c]): 2.85[c];
36 | CC(C)Nc1nc(Nc2cccc(CS(=O)(=O)NCc3ccccc3)c2)ncc1Cl [Example 251] |  | logP [3]: 2.18[b]; logP (method marker [c]): 3.35[c];
37 | CC(C)Nc1nc(Nc2cccc(C=O)c2)ncc1Cl [Example 252] |  | logP [3]: 1.86[b]; logP (method marker [c]): 3.06[c];
38 | Brc1cnc(Nc2ccccc2)nc1NC1CCCC1 [Example 253] |  | logP [3]: 2.47[b]
39 | Clc1cnc(Nc2ccccc2)nc1NC1CCCC1 [Example 254] |  | logP [3]: 2.28[b]
40 | CC(=O)Cc1cccc(Nc2ncc(Cl)c(NC3CCCC3)n2)c1 [Example 255] |  | logP [3]: 2.01[b]
41 | CSc1cccc(Nc2ncc(Cl)c(NC3CCCC3)n2)c1 [Example 256] |  | logP [3]: 2.93[b]
42 | CC(C)c1cccc(Nc2ncc(C(F)(F)F)c(NC3CCCC3)n2)c1 [Example 257, N^4-Cyclopentyl-N^2-[3-(propan-2-yl)phenyl]-5-(trifluoromethyl)pyrimidine-2,4-diamine] |  | chromatographic logP (pH 2.7, LC-MS, pH 2.7, 0.1% aqueous formic acid and acetonitrile, read-out: logP [b]): 5.08; chromatographic logP (pH 2.7, method marker [b] (compound 257: pH2.7), read-out: logP): 5.08
43 | Clc1cccc(Nc2ncc(Cl)c(NC3CCCCC3)n2)c1 [Example 258] |  | logP [3]: 3.81[b]
44 | Clc1cnc(Nc2ccccc2)nc1NC1CCCCC1 [Example 259] |  | logP [3]: 2.53[b]

Now from value to compound, other results behind:

Row | logP [1] | Structure (SMILES) | other results
45 | 1.59[b] | COCC(C)Nc1nc(Nc2ccc(NC(=O)C(C)C)cc2)ncc1Cl (centres unmarked) [Example 169] | 
46 | 2.8[b] | COCC(C)Nc1nc(Nc2ccc(SC(F)F)cc2)ncc1Cl (centres unmarked) [Example 172] | 
47 | 2.33[b] | COCC(Nc1nc(Nc2ccccc2)ncc1Cl)C(C)C (centres unmarked) [Example 176] | 
48 | 2.21[b] | CC(C)Nc1nc(Nc2cccc(C#N)c2)ncc1Cl [Example 180] | 
49 | 1.44[b] | COc1cc(Nc2ncc(Cl)c(NC(C)C)n2)ccc1NC(C)=O [Example 181] | 
50 | 1.86[b] | COc1cccc(Nc2ncc(Cl)c(NC(C)C)n2)c1 [Example 182] | 
51 | 1.63[b] | COc1ccc(Nc2ncc(Cl)c(NC(C)C)n2)cc1 [Example 183] | 
52 | 2.46[b] | CC(C)Nc1nc(Nc2ccc(C#N)cc2)ncc1Cl [Example 184] | 
53 | 3.26[b] | CC(C)Nc1nc(Nc2cccc(OC(F)(F)F)c2)ncc1Cl [Example 185] | 
54 | 1.86[b] | CC(C)Nc1nc(Nc2ccc(S(C)(=O)=O)cc2)ncc1Cl [Example 186] | 
55 | 2.91[b] | CSc1ccc(Nc2ncc(Cl)c(NC(C)C)n2)cc1Cl [Example 187] | 
56 | 1.81[b] | CC(C)Nc1nc(Nc2ccc(NC(=O)C(C)(C)C)cc2)ncc1Cl [Example 188] | 
57 | 1.32[b] | CC(=O)Nc1ccc(Nc2ncc(Cl)c(NC(C)C)n2)cc1 [Example 189] | 
58 | 1.61[b] | CC(=O)Nc1ccc(Nc2ncc(Cl)c(NC(C)C)n2)cc1Cl [Example 190] | 
59 | 1.66[b] | CCN(C(C)=O)c1ccc(Nc2ncc(Cl)c(NC(C)C)n2)cc1 [Example 191] | 
60 | 1.51[b] | CC(=O)N(C)c1ccc(Nc2ncc(Cl)c(NC(C)C)n2)cc1 [Example 192] | 
61 | 1.93[b] | CC(C)Nc1nc(Nc2ccc(NC(=O)C(F)(F)F)cc2)ncc1Cl [Example 193] | 
62 | 1.71[b] | CC(C)Nc1nc(Nc2ccc(NC(=O)C3(C)CC3)cc2)ncc1Cl [Example 194] | 
63 | 1.39[b] | CC(=O)Nc1cccc(Nc2ncc(Cl)c(NC(C)C)n2)c1 [Example 195] | 
64 | 1.66[b] | C=C(C)C(=O)Nc1cccc(Nc2ncc(Cl)c(NC(C)C)n2)c1 [Example 196] | 

Row | logP [1] | Structure (SMILES) | other results
65 | 1.91[b] | CC(C)Nc1nc(Nc2cccc(NC(=O)C(C)(C)C)c2)ncc1Cl [Example 197] | 
66 | 2.08[b] | CC(C)Nc1nc(Nc2cccc(S(=O)(=O)N3CCCCC3)c2)ncc1Cl [Example 198] | 
67 | 2.06[b] | CC(=O)c1ccc(Nc2ncc(Cl)c(NC(C)C)n2)cc1 [Example 200] | 
68 | 1.53[b] | COC(=O)Nc1ccc(Nc2ncc(Cl)c(NC(C)C)n2)cc1 [Example 201] | 
69 | 1.66[b] | CCOC(=O)Nc1ccc(Nc2ncc(Cl)c(NC(C)C)n2)cc1 [Example 202] | 
70 | 1.59[b] | COC(=O)Nc1cccc(Nc2ncc(Cl)c(NC(C)C)n2)c1 [Example 204] | 
71 | 1.44[b] | CC(C)Nc1nc(Nc2ccc3[nH]c(=O)oc3c2)ncc1Cl [Example 205] | 
72 | 1.61[b] | CC(=O)N1CCc2ccc(Nc3ncc(Cl)c(NC(C)C)n3)cc21 [Example 206] | 
73 | 1.78[b] | CC(C)Nc1nc(Nc2cccc(NC(=O)C3(C)CC3)c2)ncc1Cl [Example 207] | 
74 | 1.61[b] | CC(C)Nc1nc(Nc2ccc(NC(=O)C(C)C)cc2)ncc1Cl [Example 209] | 
75 | 2.88[b] | CC(C)Nc1nc(Nc2cccc(OC(F)(F)C(F)F)c2)ncc1Cl [Example 211] | 
76 | 2.88[b] | CC(C)Nc1nc(Nc2ccc(SC(F)F)cc2)ncc1Cl [Example 212] | 
77 | 1.24[b] | CC(C)Nc1nc(Nc2ccc(O)cc2)ncc1Cl [Example 213] | 
78 | 1.63[b] | CC(C)Nc1nc(Nc2ccc3cc[nH]c3c2)ncc1Cl [Example 215] | 
79 | 1.81[b] | CCOC(=O)Nc1cccc(Nc2ncc(Cl)c(NC(C)C)n2)c1 [Example 216] | 
80 | 1.98[b] | COCC(C)Nc1nc(Nc2cccc(C)c2)ncc1Cl (centres unmarked) [Example 225] | 
81 | 1.41[b] | COCC(C)Nc1nc(Nc2ccc(N3C(=O)CN(C)C3=O)cc2)ncc1Cl (centres unmarked) [Example 227] | 
82 | 2.18[b] | CC(C)Nc1nc(Nc2cccc(CS(=O)(=O)N(C)C(C)C)c2)ncc1Cl [Example 242] | logP [2]: 3.44[c];
83 | 1.96[b] | CCN(C)S(=O)(=O)Cc1cccc(Nc2ncc(Cl)c(NC(C)C)n2)c1 [Example 243] | logP [2]: 3.18[c];
